Laboratory results from PMC12464775, “Selective and Potent Peptide Binders of RNF43 for Wnt Signaling Inhibition” (ACS Central Science, 2025).
Bridge positions count the residues as written; N and C are the ends. Peptide text beside a SMILES is read from it.

How the values were obtained:
human RNF43 = molecular target: T1, human RNF43 (Homo sapiens, UniProt Q68DV7); test: SPR binding of DCPs to immobilized human RNF43 ECD; conditions: for improvement in affinity for RNF43 over the previous generation: SPR KD, each round of affinity maturation versus its parent DCP
T1 construct: ECD of the human RNF43 protein was incubated with EZ-link-NHS-PEG4-biotin; biotin (chemical label, NHS-PEG4-biotin on amines, 1-2 per protein)
T1 sequence (Q68DV7 24-197 limits assumed): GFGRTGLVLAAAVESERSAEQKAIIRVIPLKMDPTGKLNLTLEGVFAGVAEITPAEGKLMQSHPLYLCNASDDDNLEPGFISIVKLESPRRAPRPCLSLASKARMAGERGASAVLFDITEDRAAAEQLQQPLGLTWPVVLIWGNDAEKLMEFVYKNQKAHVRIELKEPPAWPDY
Protocol: ECD of the human RNF43 protein was incubated with EZ-link-NHS-PEG4-biotin (Thermo Fisher, 1:1, 50 μM) for 1 h at room temperature (RT). The reaction was quenched by addition of 10 mM Glycine, followed by dialysis into phosphate buffered saline (PBS) overnight at 4 °C. Finally, the biotinylated protein was analyzed using LC-MS to ensure that each protein is labeled with 1–2 biotin molecules. ,
(§1) SPR measurement was carried out using a Biacore S200 (Cytiva) instrument, with PBS-T (PBS with 0.05% Tween 20, pH 7.4) as the buffer. Biotinylated protein was captured on three sensor channels of Series S SA Sensors (Cytiva). The sensors were then blocked with 0.1 mg/mL biotin. DCPs were injected onto the sensor in a 3× concentration series. The data were double-referenced by subtracting the signal from a sensor channel coated with biotin only and the signal from a buffer injection. For data analysis, binding data were fitted using the manufacturer’s software. ,

mouse RNF43 = molecular target: T2, mouse RNF43 (Mus musculus, UniProt Q5NCP0); test: SPR binding of DCPs to mouse RNF43; conditions: independently performed at least three times
T2 sequence (Q5NCP0 24-197 limits assumed): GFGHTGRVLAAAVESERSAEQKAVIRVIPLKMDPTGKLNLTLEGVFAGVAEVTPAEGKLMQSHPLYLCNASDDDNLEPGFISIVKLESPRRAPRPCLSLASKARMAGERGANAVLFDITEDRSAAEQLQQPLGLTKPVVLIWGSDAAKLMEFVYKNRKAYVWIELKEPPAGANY
Protocol: as §1

deglycosylated RNF43 = molecular target: T3, deglycosylated RNF43 (Homo sapiens, UniProt Q68DV7); test: SPR binding to deglycosylated RNF43; conditions: biotinylated RNF43 treated with Deglycosylation Mix II, fitted data of representative sensorgram
T3 construct: ECD of the human RNF43 protein was incubated with EZ-link-NHS-PEG4-biotin; biotin (chemical label, NHS-PEG4-biotin)
T3 sequence (Q68DV7 24-197): T1 sequence (Q68DV7 24-197 limits assumed)
Protocol: as §1
Protein deglycosylation was performed on a small scale using Deglycosylation Mix II (P6044, NEB), according to the manufacturer’s instructions. Briefly, the biotinylated RNF43 was incubated with Deglycosylation Mix II for 1 h at RT. Then the reaction mixture was transferred to 37 °C and further incubated overnight. Following incubation, the reaction mixture was analyzed by mobility shift on SDS-PAGE gels. After dialysis, the protein was then used for further applications.

Row | SMILES | improvement in affinity for RNF43 over the previous generation (human RNF43) | Kd (mouse RNF43) [nM] | KD against deglycosylated RNF43 (deglycosylated RNF43) | KD (h, nM) (human RNF43; SPR, Biacore S200, biotinylated human RNF43 captured on SA sensor, DCP injected, PBS-T pH 7.4, independently performed at least three times, NB = no binding)
1 | CC[C@H](C)[C@H](NC(=O)[C@@H]1CSSC[C@@H]2NC(=O)[C@H](CC(=O)O)NC(=O)[C@H](CC(C)C)NC(=O)[C@H](Cc3ccc(O)cc3)NC(=O)[C@H](Cc3ccc(O)cc3)NC(=O)[C@@H]3CCCN3C(=O)[C@H]([C@@H](C)CC)NC(=O)[C@@H]3CSSC[C@H](NC(=O)[C@H](CCC(=O)O)NC(=O)[C@H](CC(C)C)NC(=O)[C@@H]4CCCN4C(=O)[C@H](CCC(=O)O)NC(=O)[C@H](CSSC[C@H](NC(=O)[C@@H](N)CCC(N)=O)C(=O)N[C@@H](C(C)C)C(=O)N[C@@H](CCCCN)C(=O)N[C@@H](CCCCN)C(=O)N[C@@H](CC(=O)O)C(=O)N[C@@H](CCC(=O)O)C(=O)N[C@@H](CC(C)C)C(=O)N3)NC2=O)C(=O)N[C@@H](CCCNC(=N)N)C(=O)N[C@@H](Cc2c[nH]c3ccccc23)C(=O)N[C@@H](C)C(=O)N[C@@H](C(C)C)C(=O)N[C@@H](CCCCN)C(=O)N[C@@H](Cc2ccc(O)cc2)C(=O)N[C@@H](CCC(N)=O)C(=O)N[C@@H](Cc2c[nH]c3ccccc23)C(=O)N[C@@H](Cc2ccccc2)C(=O)N[C@@H](Cc2c[nH]c3ccccc23)C(=O)N[C@@H](CC(=O)O)C(=O)N1)C(=O)NCC(=O)O [GUR-1.6] (H-QCVKKDELCIPYYLDCCEPLECRWAVKYQWFWDCIG-OH; disulfide 2-17, 9-22, 16-34; N-terminus assumed) | 10 fold |  |  | 
2 | CC[C@H](C)[C@H](NC(=O)[C@@H]1CSSC[C@H](NC(=O)[C@@H](NC(=O)[C@H](Cc2c[nH]cn2)NC(=O)[C@H](CO)NC(=O)[C@H](Cc2ccc(O)cc2)NC(=O)[C@H](CC(=O)O)NC(=O)[C@H](Cc2c[nH]cn2)NC(=O)[C@@H]2CSSC[C@H](NC(=O)[C@H](CCC(N)=O)NC(=O)[C@@H](N)CCC(=O)O)C(=O)N[C@@H]([C@@H](C)O)C(=O)N[C@@H](CO)C(=O)N[C@@H]([C@@H](C)O)C(=O)N[C@@H](CCC(N)=O)C(=O)N[C@@H](CC(=O)O)C(=O)N[C@@H](CC(C)C)C(=O)N2)C(C)C)C(=O)N[C@H]2CSSC[C@H](NC(=O)[C@H](CC(=O)O)NC(=O)[C@H](CC(C)C)NC(=O)[C@@H]3CCCN3C(=O)[C@H](Cc3c[nH]c4ccccc34)NC2=O)C(=O)N[C@@H](CCCNC(=N)N)C(=O)N[C@@H](Cc2c[nH]c3ccccc23)C(=O)N[C@@H](C)C(=O)N[C@@H](C(C)C)C(=O)N[C@@H](CCCCN)C(=O)N[C@@H](Cc2ccc(O)cc2)C(=O)N[C@@H](CCC(N)=O)C(=O)N[C@@H](Cc2c[nH]c3ccccc23)C(=O)N[C@@H](Cc2ccccc2)C(=O)N[C@@H](Cc2c[nH]c3ccccc23)C(=O)N[C@@H](CC(=O)O)C(=O)N1)C(=O)NCC(=O)O [GUR-1.6.12.2] (H-EQCTSTQDLCHDYSHVCCWPLDCRWAVKYQWFWDCIG-OH; disulfide 3-10, 17-35, 18-23) |  | 2.1 ± 0.2 | remained unchanged | single-digit nanomolar
3 | CC[C@H](C)[C@H](NC(=O)[C@@H]1CSSC[C@@H]2NC(=O)[C@H](CC(=O)O)NC(=O)[C@H](CC(C)C)NC(=O)[C@H](Cc3ccc(O)cc3)NC(=O)[C@H](Cc3ccc(O)cc3)NC(=O)[C@@H]3CCCN3C(=O)[C@H]([C@@H](C)CC)NC(=O)[C@@H]3CSSC[C@H](NC(=O)[C@H](CC(=O)O)NC(=O)[C@H](CC(C)C)NC(=O)[C@@H]4CCCN4C(=O)[C@H](Cc4c[nH]c5ccccc45)NC(=O)[C@H](CSSC[C@H](NC(=O)[C@@H](N)CCC(N)=O)C(=O)N[C@@H](C(C)C)C(=O)N[C@@H](CCCCN)C(=O)N[C@@H](CCCCN)C(=O)N[C@@H](CC(=O)O)C(=O)N[C@@H](CCC(=O)O)C(=O)N[C@@H](CC(C)C)C(=O)N3)NC2=O)C(=O)N[C@@H](CCCNC(=N)N)C(=O)N[C@@H](Cc2c[nH]c3ccccc23)C(=O)N[C@@H](C)C(=O)N[C@@H](C(C)C)C(=O)N[C@@H](CCCCN)C(=O)N[C@@H](Cc2ccc(O)cc2)C(=O)N[C@@H](CCC(N)=O)C(=O)N[C@@H](Cc2c[nH]c3ccccc23)C(=O)N[C@@H](Cc2ccccc2)C(=O)N[C@@H](Cc2c[nH]c3ccccc23)C(=O)N[C@@H](CC(=O)O)C(=O)N1)C(=O)NCC(=O)O [GUR-1.6.12] (H-QCVKKDELCIPYYLDCCWPLDCRWAVKYQWFWDCIG-OH; disulfide 2-17, 9-22, 16-34; N-terminus assumed) | slightly improved |  |  | 
